What was measured:
[1] = test system: intracellular GSH in IGROV-1 cells; experiment: Glutathione colorimetric detection assay; assay type: cell-based, human; settings: IGROV-1, 50 μM, 24 h; statistical significance not confirmed
Description: This lowering was not observed for Ru-LBSO which is not active in this cell line. Other papers have shown a similar result by including L-BSO as an additional agent, therefore showing L-BSO remains inhibitory.
Once the agarose had set , the slides were submerged in alkaline lysis solution (1.3 M NaCl, 100 mM Na2EDTA, 0.1% sodium lauryl sarcosinate, 0.26 M NaOH pH > 13) and incubated overnight at 277 K in the dark. The following day the slides were rinsed for 20 min three times in the electrophoresis solution ([…] NaOH, 2mM Na 2EDTA pH 12.3). The slides were then placed into the electrophoresis tank with fresh electrophoresis buffer, 1 -2 mm above the slides. Electrophoresis was run at 18.3 V for 25 min. Once electrophoresis was complete, slides were rinsed in distilled water and placed in 2.5 µg/mL PI for 20 min. After staining, cells were rinsed in distilled water to remove excess stain. Twenty comet images per sample were taken by confocal microscopy and analysed by OpenComet. 10
1 x 10^6 IGROV-1 cells were seeded in a 6-well plate and incubated for 24 h at 310 K. All complexes (50 µM and 100 µM) were added to the wells and incubated for 24 h. […]
Percentage of IGROV -1 cancer cells in non -apoptotic, apoptotic (early and late) or necrotic phases determined by flow cytometry after 24 h treatment with Os/Ru L -BSO and glycine complexes. […] Standard deviations calculated for N=3. […]

[2] = test system: IGROV-1 cells; experiment: Comet assay (DNA damage in single cells); assay type: cell-based, human; settings: IGROV-1, 24 h; 100 μM for Cisplatin and Os-Gly
Description: Comet assays were carried out to determine whether the complexes caused DNA damage in single cells. […] Cisplatin DNA-adducts have been shown previously to inhibit DNA migration through electrophoresis presenting as less tail movement. […] Excess dye was removed, and cells were re-suspended in PBS. Samples were analysed by flow cytometry using the BD FACSMelodyTM Cell Sorter (R653880001) and data analysis on FlowJoTM v10 Software (BD Life Sciences).9 2.11 Apoptosis IGROV-1 cells (1 x 106) were seeded in a 6-well plate and incubated for 24 h at 310 K. Stock solutions (200 μM) of the complexes were prepared by dissolving the compound in 5% (v/v) DMSO followed by dilution with DMEM and then diluted to desired concentrations. All complexes (50 μM and 100 μM) were added to the wells and incubated for 24 h. Cell pellets were collected using 0.25% trypsin and centrifuged (500 x g, 5 mins at 277 K). Cell pellets were washed with PBS and then stained with the commercial Apoptosis Detection Kit-FITC Annexin V and PI (BioLegend; San Diego, USA), as per manufacturer's instructions. Briefly, a staining solution of FITC Annexin V (1 unit/100 μL) diluted 1 in 100 and 1 μg/mL PI was added to the cells (30 min, room temperature). Excess dye was removed, and cells were re-suspended in PBS. Samples were analysed by flow cytometry using the BD FACSMelodyTM Cell Sorter (R653880001) and data analysis on FlowJoTM v10 Software (BD Life Sciences).9 2.12 Comet assay IGROV-1 cells (8×10^5 cells per well) were seeded into 6-well plates and incubated for 24 h. Test compounds (50 μM and 100 μM) were added to the wells and incubated at 3 10 K for 24 h. Cells were enzymatically detached using trypsin and cell concentration adjusted to 2×10^4 cells /mL in ice-cold PBS. 0.4 mL of cell suspension was added to 1.2 mL of 1% low melting point agarose in H 2O, then immediately added to microscope slides pre -coated in 1% agarose. […] Twenty comet images per sample were taken by confocal microscopy and analysed by OpenComet. […]

In the case of [(p-cymene)Os(L-BSO)Cl] [Os-LBSO], the “Lowering of intracellular GSH level” value [1] is reported as “ca. 50%” and the “Comet tails vs untreated cells” value [2] is reported as “trend toward longer comet tails but this was not significant”.
